US8334107B2, “Detection systems utilizing supported lipid bilayers” (priority 2005, dated 2012)

What was measured:
[1] = Lipid bilayers on MS-PPE as barriers to superquenching by AQS, flow cytometry; type: physicochemical; conditions: 10 μM AQS
Procedure: Small unilamellar vesicles (SUVs) were prepared using a 2 mM solution of DPPC, 1 mM egg-PC, or 2 mM DMPG in chloroform. The lipid was dried by nitrogen gas followed by vacuum. The dried lipid was resuspended in phosphate buffer saline (PBS), pH 7.4, and incubated at 37° C. for 10 min, then sonicated to optical clarity in a sonication bath (Branson Cleaning Equipment Co., Shelton, Conn.).
Lipid bilayers were assembled on microspheres as previously described (Buranda et al. Langmuir 19:1654-1663 (2003); Bayerl & Bloom, Biophys J 58:357-362 (1990)). Briefly, the small unilamellar vesicles were incubated at 37° C. for 5 min, and PPE-coated microspheres were added to them, and mixed at room temperature using a vortex mixer for 30 min, followed by incubation at 37° C. for 5 min without mixing. The lipid-coated PPE-coated microspheres were washed by suspension in PBS followed by centrifugation, where the clear supernatant was decanted and discarded. The cycle of resuspension, centrifugation, and decanting, was repeated four additional times. Finally, the lipid-coated PPE-coated microspheres were resuspended in PBS.
(§1) Bead suspensions of 2.5×10^5 PPE-coated microspheres in 200 μL PBS were analyzed using a FACScan flow cytometer (Becton-Dickinson, Sunnyvale, Calif.) with excitation at 488 nm. Fluorescence signals were acquired on the FL-1 channel (525 nm) using log amplification and analyzed with the CellQuest software.
The feasibility of using the zwitterionic lipids DPPC and egg-PC to form supported lipid bilayers on MS-PPE was assessed (FIG. 15). […] Addition of AQS produced an almost 40% reduction of the polymer fluorescence, yet the fluorescence of the DPPC bilayer coated MS-PPE in the presence of the AQS quencher was still almost 10-fold higher than that of MS-PPE and quencher without the lipid.
The PPE polymer is positively charged. […] However when using 2 mM DMPG, the modulation of polymer fluorescence was relatively small (FIG. 15). […] Thus, upon addition of quencher to MS-PPE after treatment with DMPG ˜70% of fluorescence of the PPE was retained (FIGS. 16A and 16B).

[2] = test system: EPC bilayer on porous silica beads; test: Suspension study: release of fluorescein dye from lipid bilayer coated porous silica beads; type: biochemical
Procedure: Lipid coatings on beads were disrupted using 10% Triton X-100. Each sample in micro-centrifuge tubes contained 5 mg of lipid bilayer coated, fluorescein entrapped beads in 200 μL of Tris buffer. Samples were centrifuged and 100 μL aliquots of supernatant were mixed with either 100 μL of Tris buffer or 100 μL of 10% Triton X-100® detergent in separate centrifuge tubes. The fluorescence intensity of each mixture was immediately (time=0) recorded. Each mixture was mixed with its respective bead sample in centrifuge tube and incubated at 25° C. in the dark. After 30 min, samples were centrifuged and fluorescent intensity of the supernatants was measured. Beads were resuspended in their respective supernatants. Fluorescence intensity was again measured at 90 and 150 min.
Experimental procedures were similar to the Triton X-100® detergent based analysis. For experiments with α-toxin, three different toxin concentrations: 15, 45 and 250 μg/mL were used at 37° C. and 25° C. Beads coated with EPC were used. In the experiments with melittin, 220 μM melittin was used with beads coated with either 100% EPC, 10:90 (molar ratio) mixture of DMPG and EPC or an 80:20 mixture of DMPG and DMPC. All melittin experiments were conducted at 25° C.
Previous suspension studies on disruption of lipid bilayers have been performed with small unilamellar vesicles where disruption of the lipid bilayer membranes was detected by monitoring the unquenching of a highly concentrated, encapsulated dye. In the present work disruption was monitored via release of fluorescein dye from porous beads, by measuring the increase in fluorescence intensity of the supernatant at 520 nm. Beads were first suspended in Tris buffer containing the disruptor. After selected time periods, beads were sedimented by centrifuging and a portion of the supernatant was taken for the measurement. The measured portion was added back to the bead sample to permit continuous monitoring. The scattering effect that was present in vesicle based studies was minimized by measuring only the supernatant after centrifugation of the beads.

[3] = test system: DMPG lipid bilayer on MS-PPE; test: Disruption of DMPG lipid bilayer on MS-PPE detected by superquenching with AQS, flow cytometry; type: biochemical
Procedure: Lipid bilayers were disrupted by adding Triton X-100® detergent to the bead suspension to a final concentration of 0.25% (w/v).
as §1
Bead suspensions of 2.5×10^5 DMPG-coated MS-PPE in 200 μL of PBS were analyzed using a FACScan flow cytometer (Becton-Dickinson, Sunnyvale, Calif.) with excitation at 488 nm. Fluorescence signals were acquired on FL-1 channel (525 nm) using log amplification and analyzed with the CellQuest software. Kinetic analysis of disruption of supported lipid bilayer by melittin was performed by acquiring real-time data with continuous mixing of samples (10^6 MS-PPE in 800 μl of PBS) using a magnetic stirrer. The raw data were analyzed using IDL Query software developed by Bruce Edwards (Cancer Center, University of New Mexico, Albuquerque, N. Mex.).
Because an anionic lipid was used to form a lipid bilayer around MS-PPE, it was expected that MLT will disrupt the DMPG lipid bilayer by such a detergent-like action. This was tested by adding 10 μM AQS to DMPG-coated MS-PPE followed by treatment with one of the following: Triton X-100® detergent, synthetic MLT (sMLT), or natural MLT (nMLT) and immediately reading the fluorescence by flow cytometry. […] These histograms resemble the ones reported previously for MS-PPE, without a lipid coating, in absence and in presence of AQS.
The kinetics of disruption of supported lipid bilayer by MLT were monitored by measuring real-time changes in fluorescence intensity by flow cytometry (FIG. 19). Suspensions of 10^6 DMPG-coated MS-PPE in 800 μL of PBS were treated with AQS at a final concentration of 10 μM, then with either sMLT, Triton X-100® detergent, or no treatment. […] Treatment with sMLT in the absence of AQS led to an increase in normalized fluorescence (FIG. 19, trace A). This can be attributed to disruption of the lipid bilayer by sMLT, and is consistent with a reversal of the slight quenching of fluorescence caused by the formation of a DMPG lipid bilayer over MS-PPE. Addition of AQS alone to DMPG-coated MS-PPE (FIG. 19, trace C) led to a 20% reduction in fluorescence as reported earlier. Addition of Triton X-100® detergent to DMPG-coated MS-PPE after the addition of AQS (first dip in trace E, FIG. 19) caused immediate decrease in fluorescence to ˜10% of its original value (second dip in trace E, FIG. 19). In contrast, addition of sMLT, after the addition of AQS, (FIG. 19, trace D) led to a gradual reduction of fluorescence intensity to ˜20% of the original value. Although MLT forms dimers at high concentrations (Dempsey, C. E. Biochim. Biophys. Acta 1990, 1031, 143-161), it is monomeric at the concentrations used in this study. On the other hand, Triton X-100® detergent forms micelles at the concentration used in this study.

[4] = test system: lipid membranes on porous silica beads (containing fluorescein dye); test: Microfluidic study: detection of membrane interaction by release of dye from bead packed microcolumn; type: biochemical
Procedure: To create a packed microcolumn of lipid coated beads containing fluorescein, 2 μL of silica bead (diameter=20 μm) containing suspension (0.05 mg/μL) was injected into a microfluidic channel by applying vacuum at the outlet port of the microchannel, followed by the injection of 10 μL of fluorescein-entrapped bead (diameter=10 μm) containing suspension (0.05 mg/μL). The bead packed microchannel was mounted onto a vertical translational stage located in the sample holder space of the fluorimeter. Just below the bead segment, the microchannel was irradiated with an Argon ion laser (λ=488 nm, 8-10 mW) excitation. The inlet of the column was connected to a buffer reservoir while the outlet was connected to a vacuum source. As the fluorescence intensity at 520 nm was monitored, several microliters of Tris buffer was passed through the microchannel before the injection of Triton X-100® detergent. […]
The packed segment was about 2 mm long. The disruption of the membranes on porous silica beads (containing fluorescein dye) by Triton X-100® detergent was detected by monitoring the release of the dye from the beads, at a point just below the bead segment as indicated in FIG. 7B. […] The microcolumn was irradiated at 488 nm and fluorescence intensity was monitored at 520 nm. […]

[5] = 0.25% (w/v) Triton X-100, 10 μM AQS

In the case of `CCCCCCCCCCCCCCCC(=O)OC[C@H](COP(=O)([O-])OCC[N+](C)(C)C)OC(=O)CCCCCCCCCCCCCCC` [DPPC, 1,2-dipalmitoyl-sn-glycero-3-phosphatidylcholine], the “fluorescence with AQS relative to MS-PPE and quencher without the lipid” value [1] is reported as ~10 fold and the “reduction (quenching) of polymer fluorescence on addition of AQS” value ([1]; lipid coated MS-PPE) is reported as ~40%.

For `CCCCCCCCCCCCCC(=O)OC[C@H](COP(=O)([O-])OCC(O)CO)OC(=O)CCCCCCCCCCCCC.[Na+]` (mixture of isomers) [DMPG, 1,2-dimyristoyl-sn-glycero-3-[phosphor-rac-(1-glycerol)] sodium salt], the “fluorescence of the PPE retained upon addition of quencher” value ([1]; 2 mM DMPG) was ~70%.

For Triton X-100, the “increase in fluorescence intensity of the supernatant” value ([2]; 10% Triton X-100, first 30 min, 25° C.) was “more than 70 fold”, the “increase in fluorescence intensity (total disruption of bilayers)” value ([2]; Triton X-100 added after 150 min of α-toxin exposure) was 50 fold and the “fluorescence after bilayer disruption, of the fluorescence of DMPG-coated MS-PPE in the absence of quencher” value [3, 5] was ~18%. The “fluorescence after bilayer disruption, of the original fluorescence value” [3, 5] was ~10%, the “fluorescence intensity, of the original value” ([3]; real-time kinetics, added after 10 μM AQS (traces D, E)) was ~10% and the “initial signal (1st peak) less than that observed in suspension studies” value ([4]; 10% Triton X-100, microcolumn versus suspension) was ~80%. For the same compound, the “increase in fluorescence intensity at detection point” value ([4]; 10 μL of 10% Triton X-100, about 5 min no flow incubation) was 25 fold.
